How the values were obtained:
Type in all cases: cell-based
[1] = system: LPS-induced TNFα release by macrophage U937 cells; experiment: Effect of sphingolipids on LPS-induced TNFα release by macrophage U937 cells; details: differentiated U937 cells; 1 μg/ml or 10 μg/ml sphingolipid for 30 min, then LPS 1 μg/ml for 4 hours; FIG. 1
Experimental: Undifferentiated U937 cells were grown at 37° C. at 5% (v/v) CO2 and 100% relative humidity in medium consisting of RPMI 1640, and supplemented with 10% Fetal Calf Serum (FCS), 2 mM L-Glutamine, 50 μg/ml Gentamycin and 0.4% Fungizone. The cells were passaged every three days. Finally the cells were transferred to 96-wells microtiter plates. Differentiation was induced by addition of 10 ng/ml PMA (Phorbol 12-myristate 13-acetate). After 24 hours the medium was changed and refreshed every day and the differentiated macrophages were grown for another 3 days at 37° C. The above described differentiated U937 cells were treated for 30 min with 1 μg/ml or 10 μg/ml sphingolipid (1 mg/mL in ethanol). Then the cells were stimulated with LPS (1 μg/ml) for a period of 4 hours. The TNFα release was measured with the TNF-α cytoset™ from Biosource International, Camarillo, Calif., USA.

[2] = system: NFAT-mediated signal transduction pathway in Jurkat cells (T-cells); experiment: PMA/ionomycin-induced stimulation of Jurkat cells, NFAT-luciferase reporter; details: 10 μg/mL sphingolipid; Jurkat pNFAT-luc; PMA 50 ng/ml and ionomycin 1 μg/ml, 6 hours; FIG. 2
Experimental: (§1) Jurkat cells (T-cells) stably transfected with pNFAT-luc (Clontech, BD Bioscience, Becton, Dickinson and Company, Franklin Lakes, N.J. USA) in which the hygromycin resistance gene was cloned were used. The cells produce the enzyme luciferase under control of the NFAT (nuclear Factor of Activated T cells) promoter. The NFAT-mediated pathways are stimulated in Jurkat cells by PMA and ionomycin. Cells were grown at 37° C. at 5% (v/v) CO2 and 100% relative humidity in medium consisting of RPMI 1640, 10 mM HEPES (N-[2-hydroxyethyl]piperazine-N′-[2-ethanesulfonic acid), 10% FCS, 2 mM L-Glutamine and 1 mM Sodium Pyruvate. The medium was changed every 3 days. Finally the cells were transferred to 96-wells plates.
A cell suspension of 5×10^5 cells/ml in medium without phenol red was transferred to 96 well microtiter plates (200 μL/well). In triplicate sphingolipids were added (1 or 10 μg/mL). After 30 min PMA (50 ng/ml) and ionomycin (1 μg/ml) was added and the cells were incubated during 6 hours. Then 60 μl cell suspension was mixed with 60 μl steady glo reagent (Promega). Luminescence was measured in a Wallac 1450 microbeta liquid scintillation counter.

[3] = system: Jurkat cells (T-cells); experiment: Cell proliferation/viability of Jurkat cells, Alamar Blue test; details: exposure to sphingolipids
Experimental: as §1
Because sphingolipids can be cytotoxic to cells, the viability of the cells after exposure to the sphingolipids was checked with the Alamar Blue™ (Biosource) test. Almar blue™ (20 μL) and sphingolipids were added simultaneously. The Fluorescence (excitation at 540 nm and emission at 570 nm) was measured in a Wallac 1420 Victor^2 multilabel counter (Perkin Elmer Wellesley, Mass., USA).

SMILES | release of TNFα by LPS-stimulated macrophages [1] | PMA/ionomycin-induced activation of the NFAT-mediated signal transduction pathway (luciferase activity) [2] | cell viability of Jurkat cells (Alamar Blue fluorescence) [3]
CCCCCCCCCCCCCC[C@@H](O)[C@@H](O)[C@@H](N)CO [phytosphingosine] | strongly reduced | completely suppressed | No differences
CCCCCCCCCCCCCCC[C@@H](O)[C@@H](N)CO [sphinganine] | strongly reduced | completely suppressed | No differences
CCCCCCCCCCCCC/C=C/[C@@H](O)[C@@H](N)CO [sphingosine] | strongly reduced | completely suppressed | No differences

Reference: US20080085939A1, “Use Of Sphingolipids For Prevention And Treatment Of Atherosclerosis” (priority 2004, published 2008)
